PMC8294009, “Genetically-encoded discovery of proteolytically stable bicyclic inhibitors for morphogen NODAL” (Chemical Science, 2021)
*1 amine or outer side, *2 acyl side, *3 side chain or, on linkers, in order; H or OH if unused. Where a SMILES comes first, the peptide text is derived from it. Bridges are numbered along the chain shown (N, C = ends). S(p-C6F4)2 = Fc1c(F)c([*:1])c(F)c(F)c1Sc1c(F)c(F)c([*:2])c(F)c1F; X1 = O=C(C=NOCCCCCCOc1cc(C[*:2])cc(C[*:3])c1)[*:1]; X2 = O=C(C=NOCc1cc(C[*:2])cc(C[*:3])c1)[*:1]; mXylylene = c1cc(C[*:1])cc(C[*:2])c1

Test system: not given
Experiment: not given
Conditions: crosslinker bond; DBMB

In order of rising ring closure, isolated yield:
1. H-SFCDWYGC-NH2 + DBMB  10%
2. H-SPCKGPSATC-NH2 + DBMB  10%
3. H-SQCKRAHAEC-NH2 + DBMB  10%
4. H-SPCKAGTGQC-NH2 + DBMB  12%
5. H-SWDYRECYLEC-NH2 + DBMB  12%
6. H-SHCVWWDC-NH2 + DBMB  16%
7. H-STCQGECGGG-NH2 + DBMB  19%
8. H-SPCAKGMNYC-NH2 + DBMB  25%
9. H-SHDCYLEC-NH2 + DBMB  27%
10. H-SYCKRAHKNC-NH2 + DBMB  32%
11. H-SICRFFCGGG-NH2 + DBMB  46%
12. H-SSWPARCLHQDLC-NH2 + DBMB  46%
13. H-SHCDYYC-NH2 + DBMB  47%
14. H-SYCKADC-NH2 + DBMB  47%
15. H-SYCKPFC-NH2 + DBMB  62%
16. H-SPCKGRHHNC-NH2 + DBMB  63%

Same assay, conditions: crosslinker bond; PFS

In order of falling ring closure, isolated yield:
1. H-SICRFFCGGG-NH2 + PFS  40%
2. H-STCQGECGGG-NH2 + PFS  31%

Same assay, conditions: crosslinker bond; TBMB

In order of rising ring closure, isolated yield:
1. Ac-CSWPARCLHQDLC-NH2 + TBMB  33%
2. Ac-CNTWNPWCPWDAPLCam-NH2 + TBMB  38%

Same assay, conditions: crosslinker bond; TSL-1

In order of rising ring closure, isolated yield:
1. H-SYCKADC-NH2 + TSL-1  37%
2. H-SYCKPFC-NH2 + TSL-1  41%
3. H-SWDYRECYLEC-NH2 + TSL-1  54%

Same assay, conditions: crosslinker bond; TSL-6

In order of rising ring closure, isolated yield:
1. H-SYCKRAHKNC-NH2 + TSL-6  14%
2. H-SYCPYSGTNC-NH2 + TSL-6  32%
3. H-SWDYRECYLEC-NH2 + TSL-6  42%

Test system: rhNODAL-induced phosphorylation of SMAD2 in P19 cells
Experiment: Inhibition of pSMAD assay with P19 cells (western blot of p-SMAD2)
Assay type: cell-based
Conditions: control inhibitor, concentration not given, rhNODAL 100 ng mL^−1, 1 hour
Source text: 3.6. Processing of Illumina data
The Gzip compressed FASTQ files were downloaded from BaseSpace™ Sequence Hub. The files were converted into tables of DNA sequences and their counts per experiment. Briefly, FASTQ files were parsed based on unique multiplexing barcodes within the reads discarding any reads that contained a low-quality score. Mapping the forward (F) and reverse […] barcoding regions, mapping of F and R priming regions allowing no more than one base substitution each and F-R read alignment allowing no mismatches between F and R reads yielded DNA sequences located between the priming regions. The files with DNA reads, raw counts, and mapped peptide modifications were uploaded to http://48hd.cloud/ server. Each experiment has a unique alphanumeric name (e.g., 20181108-16TSooPA-YW) and unique static URL:
Un- http://48hd.cloud/file/23 https://48hd.cloud/file/2 https://48hd.cloud/file/2 […]
TSL-6 https://48hd.cloud/file/2 https://48hd.cloud/file/2 https://48hd.cloud/file/2 […]
Elution https://48hd.cloud/file/2 https://48hd.cloud/file/2 https://48hd.cloud/file/2 […]
Amplificati https://48hd.cloud/file/2 https://48hd.cloud/file/2 https://48hd.cloud/file/2 […]
3.7. General protocol for protein extraction
All samples in the protein extraction protocol were done on ice. […]

In the case of NC(=O)c1ccc(-c2nc(-c3ccc4c(c3)OCO4)c(-c3ccccn3)[nH]2)cc1 [SB431542], the “inhibition of rhNODAL-induced phosphorylation of SMAD2” value is reported as “inhibited”.

Test system: TYK-nu-NODAL cells
Experiment: not given
Assay type: cell-based
Conditions: human, 72 h, 10 µM
Description: 3.9. General protocol P19 Cell Culture
P19 Cell were obtained from ATCC cell bank and culture in Alpha Minimum Essential Medium with ribonucleotide and […] with 7.5% bovine calf serum and 2.5% fetal bovine serum at 37 °C with 5% CO2 supplementation.
3.10. Inhibition of pSMAD assay with P19 Cell […]
TYK-nu ovarian cancer cells were obtained from JCRB cell bank and cultured in Eagle’s minimal essential medium with 10 % fetal calf serum (Gibco/Thermo Fisher; Waltham, Massachusetts, USA) at 37 °C with 5% CO2 supplementation. To express the constitutive NODAL, a plasmid vector for human NODAL open reading frame (not including the stop codon) was cloned into pCMV6-Entry vector in frame with a tandem MYCDYK (FLAG) tag (Origene Cat. # RC211302). […]
Cells were seeded in three 96 wells plates with 600 cells/well or 6000 cells/well and grow in full media with G418 at 100 μg/mL O/N. The next day the media was changed to contain 19d peptide (10 µM, 1 µM and 0.1 µM) and without G418. Cells viability was measured every 24 hours with CellTiter-Glo® Luminescent Cell Viability Assay (Promega Cat. # G7572) over the course of 72

In the case of C[C@@H]1NC(=O)[C@H](CCCNC(=N)N)NC(=O)[C@H](CCCCN)NC(=O)[C@@H]2CSCc3cc(cc(c3)OCCCCCCON=CC(=O)N[C@@H](Cc3ccc(O)cc3)C(=O)N2)CSC[C@@H](C(N)=O)NC(=O)[C@H](CC(N)=O)NC(=O)[C@H](CCCCN)NC(=O)[C@H](Cc2c[nH]cn2)NC1=O [19b, TSL-[S]Y[C]KRAHKN[C]] (YCKRAHKNC-NH2; linker N-2-9 via X1), the “viability of TYK-nu-NODAL cells compared to untreated TYK-nu-NODAL cells” value is reported as 23%.

Test system: not listed separately
Experiment: in vitro
Assay type: in vitro ADME
Conditions: mouse, serum
Description: 4. Proteolytic Stability Methods
4.1. Protocol for measurement of proteolytic stability in cell assay: […]
precipitate any proteins.
4.2. Protocol for measurement of proteolytic stability in PronaseTM :
The mixture was vortexed and […]
peptide solution (from 10 mM stock). The mixture was vortexed and incubated at 37 °C. At […]
precipitate the serum protein.

In the case of C[C@@H]1NC(=O)[C@H](CCCNC(=N)N)NC(=O)[C@H](CCCCN)NC(=O)[C@@H]2CSCc3cc(cc(c3)OCCCCCCON=CC(=O)N[C@@H](Cc3ccc(O)cc3)C(=O)N2)CSC[C@@H](C(N)=O)NC(=O)[C@H](CC(N)=O)NC(=O)[C@H](CCCCN)NC(=O)[C@H](Cc2c[nH]cn2)NC1=O [19b, TSL-[S]Y[C]KRAHKN[C]] (YCKRAHKNC-NH2; linker N-2-9 via X1), the remaining at 72 h is reported as 53%.

Test system: not listed separately
Experiment: in vitro
Conditions: Streptomyces griseus, isolated enzyme pronase, pH 7.4
Description: (§1) In a 600 L Eppendorf tube, we combined 196 L PBS (pH 7.4), 2 L of corresponding peptide
(§2) solution (from 10 mM stock) and 2 L of 0.1 mg/mL PronaseTM. The mixture was vortexed and
(§3) incubated at 37 °C. At indicated time points, 10 L of the solution was sampled, quenched with
(§4) 190 L of 50% aq. CH3CN and maintained at 4 °C until analysis by LCMS.

CC(C)C[C@@H]1NC(=O)[C@H](Cc2ccc(O)cc2)NC(=O)[C@@H]2CSCc3cc(cc(c3)OCCCCCCON=CC(=O)N[C@@H](Cc3c[nH]c4ccccc34)C(=O)N[C@@H](CC(=O)O)C(=O)N[C@@H](Cc3ccc(O)cc3)C(=O)N[C@@H](CCCNC(=N)N)C(=O)N[C@@H](CCC(=O)O)C(=O)N2)CSC[C@@H](C(N)=O)NC(=O)[C@H](CCC(=O)O)NC1=O [TSL-6-SWDYRECYLEC] (WDYRECYLEC-NH2; linker N-6-10 via X1) showed a remaining at 5 h, 100 µM of 68 ± 14%.

Test system: not listed separately
Experiment: Proteolytic stability in Pronase
Conditions: Streptomyces griseus, Pronase (protease mixture) in PBS, pH 7.4
Description: as §1, §2, §3, §4

CC(C)C[C@@H]1NC(=O)[C@H](Cc2ccc(O)cc2)NC(=O)[C@@H](NC(=O)[C@H](CC(=O)O)NC(=O)[C@H](Cc2c[nH]cn2)NC(=O)[C@@H](N)CO)CSSC[C@@H](C(N)=O)NC(=O)[C@H](CCC(=O)O)NC1=O [6a] (H-SHDCYLEC-NH2; disulfide 4-8) and CC(C)C[C@@H]1NC(=O)[C@H](Cc2ccc(O)cc2)NC(=O)[C@@H](NC(=O)[C@H](CC(=O)O)NC(=O)[C@H](Cc2c[nH]cn2)NC(=O)[C@@H](N)CO)CSCc2cccc(c2)CSC[C@@H](C(N)=O)NC(=O)[C@H](CCC(=O)O)NC1=O [6g] (H-SHDCYLEC-NH2; linker 4-8 via mXylylene) cannot be ordered by remaining at 5 h, 100 µM: < 1% for the first, < 1% for the second.

CC(C)C[C@@H]1NC(=O)[C@H](Cc2ccc(O)cc2)NC(=O)[C@@H]2CSCc3cc(cc(c3)CSC[C@@H](C(N)=O)NC(=O)[C@H](CCC(=O)O)NC1=O)CON=CC(=O)N[C@@H](Cc1c[nH]cn1)C(=O)N[C@@H](CC(=O)O)C(=O)N2 [6c] (HDCYLEC-NH2; linker N-3-7 via X2) and CC(C)C[C@@H]1NC(=O)[C@H](Cc2ccc(O)cc2)NC(=O)[C@@H]2CSCc3cc(cc(c3)CSC[C@@H](C(N)=O)NC(=O)[C@H](CCC(=O)O)NC1=O)CON=CC(=O)N[C@@H](Cc1c[nH]c3ccccc13)C(=O)N[C@@H](CC(=O)O)C(=O)N[C@@H](Cc1ccc(O)cc1)C(=O)N[C@@H](CCCNC(=N)N)C(=O)N[C@@H](CCC(=O)O)C(=O)N2 [TSL-1-SWDYRECYLEC] (WDYRECYLEC-NH2; linker N-6-10 via X2) are within error of each other in remaining at 5 h, 100 µM: 83 ± 6.9% for the first, 82 ± 13% for the second.

Test system: Pronase™
Experiment: Proteolytic stability in Pronase
Conditions: 5 hours, 37 °C
Description: as §1, §2, §3, §4

For CC[C@H](C)[C@H](NC(=O)[C@@H](N)CO)C(=O)N[C@H]1CSc2c(F)c(F)c(c(F)c2F)Sc2c(F)c(F)c(c(F)c2F)SC[C@@H](C(=O)NCC(=O)NCC(=O)NCC(N)=O)NC(=O)[C@H](Cc2ccccc2)NC(=O)[C@H](Cc2ccccc2)NC(=O)[C@H](CCCNC(=N)N)NC1=O [PFS-SICRFFCGGG] (H-SICRFFCGGG-NH2; linker 3-7 via S(p-C6F4)2), the “stability in Pronase™ (in words)” value was “lower stability than bicycle TSL-3-SICRFFCGGG”.
